Measurements from ChEMBL document CHEMBL1152089, “Alkyl ether derivatives of the FK-506 related, immunosuppressive macrolide L-683,742 (C31-O-desmethyl ascomycin)” (Bioorg Med Chem Lett, 1994).

Experiments:
[1] = species on record: Mus musculus; assay: In vitro immunosuppressive activity against proliferation of antigen stimulated murine splenic T cells; type: functional, organism-based; conditions: T-cell
[2] = target: T1, Peptidyl-prolyl cis-trans isomerase FKBP1A (Homo sapiens, UniProt P62942); assay: Ability to bind the major cystolic receptor FK506 binding protein 12 by using competitive binding assay
T1 sequence (P62942 whole entry): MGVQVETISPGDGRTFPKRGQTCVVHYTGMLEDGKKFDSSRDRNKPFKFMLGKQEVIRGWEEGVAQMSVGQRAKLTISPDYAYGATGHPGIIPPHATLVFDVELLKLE

[3] = target: T1, Peptidyl-prolyl cis-trans isomerase FKBP1A; assay: Ability to bind the major cystolic receptor FKBP12 by using competitive binding assay

Row | EC50 [2] [nM] | EC50 [3] [nM] | SMILES | IC50 [1] [nM]
1 |  |  | C=C(C)CO[C@@H]1CC[C@@H](/C=C(\C)[C@H]2OC(=O)[C@@H]3CCCCN3C(=O)C(=O)C3(O)O[C@H]([C@@H](OC)C[C@@H](C)C/C(C)=C/[C@@H](CC)C(=O)C[C@H](O)[C@H]2C)[C@@H](OC)C[C@@H]3C)C[C@H]1O | 3.4
2 |  |  | C=CC[C@@H]1/C=C(\C)C[C@H](C)C[C@H](OC)[C@H]2O[C@@](O)(C(=O)C(=O)N3CCCC[C@H]3C(=O)O[C@H](/C(C)=C/[C@@H]3CC[C@@H](O)[C@H](OC)C3)[C@H](C)[C@@H](O)CC1=O)C(C)C[C@@H]2OC (single isomer, unassigned) [TACROLIMUS ANHYDROUS] | 0.29
3 | 9.2 |  | C/C=C/CO[C@@H]1CC[C@@H](/C=C(\C)[C@H]2OC(=O)[C@@H]3CCCCN3C(=O)C(=O)C3(O)O[C@H]([C@@H](OC)C[C@@H](C)C/C(C)=C/[C@@H](CC)C(=O)C[C@H](O)[C@H]2C)[C@@H](OC)C[C@@H]3C)C[C@H]1O | 8.6
4 | 6.1 |  | C=CCO[C@@H]1CC[C@@H](/C=C(\C)[C@H]2OC(=O)[C@@H]3CCCCN3C(=O)C(=O)C3(O)O[C@H]([C@@H](OC)C[C@@H](C)C/C(C)=C/[C@@H](CC)C(=O)C[C@H](O)[C@H]2C)[C@@H](OC)C[C@@H]3C)C[C@H]1O | 5.5
5 | 5 |  | CC[C@@H]1/C=C(\C)C[C@H](C)C[C@H](OC)[C@H]2O[C@@](O)(C(=O)C(=O)N3CCCC[C@H]3C(=O)O[C@H](/C(C)=C/[C@@H]3CC[C@@H](O)[C@H](O)C3)[C@H](C)[C@@H](O)CC1=O)[C@@H](C)C[C@@H]2OC | 1.8
6 | 14.9 |  | C=CC(C)O[C@@H]1CC[C@@H](/C=C(\C)[C@H]2OC(=O)[C@@H]3CCCCN3C(=O)C(=O)C3(O)O[C@H]([C@@H](OC)C[C@@H](C)C/C(C)=C/[C@@H](CC)C(=O)C[C@H](O)[C@H]2C)[C@@H](OC)C[C@@H]3C)C[C@H]1O (some centres not stated) | 6.6
7 |  |  | C=C(C)CO[C@@H]1C[C@H](/C=C(\C)[C@H]2OC(=O)[C@@H]3CCCCN3C(=O)C(=O)C3(O)O[C@H]([C@@H](OC)C[C@@H](C)C/C(C)=C/[C@@H](CC)C(=O)C[C@H](O)[C@H]2C)[C@@H](OC)C[C@@H]3C)CC[C@H]1O | 1.9
8 | 5.7 |  | CC[C@@H]1/C=C(\C)C[C@H](C)C[C@H](OC)[C@H]2OC(O)(C(=O)C(=O)N3CCCC[C@H]3C(=O)O[C@H](/C(C)=C/[C@@H]3CC[C@@H](O)[C@H](OCc4ccsc4)C3)[C@H](C)[C@@H](O)CC1=O)[C@@H](C)C[C@@H]2OC | 3.2
9 | 12 |  | CC[C@@H]1/C=C(\C)C[C@H](C)C[C@H](OC)[C@H]2OC(O)(C(=O)C(=O)N3CCCC[C@H]3C(=O)O[C@H](/C(C)=C/[C@@H]3CC[C@@H](OCc4ccsc4)[C@H](O)C3)[C@H](C)[C@@H](O)CC1=O)[C@@H](C)C[C@@H]2OC | 4.4
10 | 2.7 |  | C=CCO[C@@H]1C[C@H](/C=C(\C)[C@H]2OC(=O)[C@@H]3CCCCN3C(=O)C(=O)C3(O)O[C@H]([C@@H](OC)C[C@@H](C)C/C(C)=C/[C@@H](CC)C(=O)C[C@H](O)[C@H]2C)[C@@H](OC)C[C@@H]3C)CC[C@H]1O | 0.68
11 |  |  | CC[C@@H]1/C=C(\C)C[C@H](C)C[C@H](OC)[C@H]2OC(O)(C(=O)C(=O)N3CCCC[C@H]3C(=O)O[C@H](/C(C)=C/[C@@H]3CC[C@@H](OC(C)C)[C@H](O)C3)[C@H](C)[C@@H](O)CC1=O)[C@@H](C)C[C@@H]2OC | 9.1
12 | 10.3 |  | CC[C@@H]1/C=C(\C)C[C@H](C)C[C@H](OC)[C@H]2OC(O)(C(=O)C(=O)N3CCCC[C@H]3C(=O)O[C@H](/C(C)=C/[C@@H]3CC[C@@H](O)[C@H](OCc4cccs4)C3)[C@H](C)[C@@H](O)CC1=O)[C@@H](C)C[C@@H]2OC | 1.1
13 | 6.6 |  | C=CC(C)O[C@@H]1C[C@H](/C=C(\C)[C@H]2OC(=O)[C@@H]3CCCCN3C(=O)C(=O)C3(O)O[C@H]([C@@H](OC)C[C@@H](C)C/C(C)=C/[C@@H](CC)C(=O)C[C@H](O)[C@H]2C)[C@@H](OC)C[C@@H]3C)CC[C@H]1O (some centres not stated) | 0.73
14 |  | 3.4 | CC[C@@H]1/C=C(\C)C[C@H](C)C[C@H](OC)[C@H]2OC(O)(C(=O)C(=O)N3CCCC[C@H]3C(=O)O[C@H](/C(C)=C/[C@@H]3CC[C@@H](O)[C@H](OC(C)C)C3)[C@H](C)[C@@H](O)CC1=O)[C@@H](C)C[C@@H]2OC | 0.59
15 | 15.6 |  | CC[C@@H]1/C=C(\C)C[C@H](C)C[C@H](OC)[C@H]2OC(O)(C(=O)C(=O)N3CCCC[C@H]3C(=O)O[C@H](/C(C)=C/[C@@H]3CC[C@@H](OCc4ccco4)[C@H](O)C3)[C@H](C)[C@@H](O)CC1=O)[C@@H](C)C[C@@H]2OC | 7.8
16 | 11.8 |  | CC[C@@H]1/C=C(\C)C[C@H](C)C[C@H](OC)[C@H]2OC(O)(C(=O)C(=O)N3CCCC[C@H]3C(=O)O[C@H](/C(C)=C/[C@@H]3CC[C@@H](OCc4cccs4)[C@H](O)C3)[C@H](C)[C@@H](O)CC1=O)[C@@H](C)C[C@@H]2OC | 2.8
17 | 7 |  | C/C=C/CO[C@@H]1C[C@H](/C=C(\C)[C@H]2OC(=O)[C@@H]3CCCCN3C(=O)C(=O)C3(O)O[C@H]([C@@H](OC)C[C@@H](C)C/C(C)=C/[C@@H](CC)C(=O)C[C@H](O)[C@H]2C)[C@@H](OC)C[C@@H]3C)CC[C@H]1O | 2.1
18 | 4.6 |  | CC[C@@H]1/C=C(\C)C[C@H](C)C[C@H](OC)[C@H]2OC(O)(C(=O)C(=O)N3CCCC[C@H]3C(=O)O[C@H](/C(C)=C/[C@@H]3CC[C@@H](O)[C@H](OCc4ccco4)C3)[C@H](C)[C@@H](O)CC1=O)[C@@H](C)C[C@@H]2OC | 3.6
